We go through two compounds from patent US20160199380A1, “Sigma Ligands For the Prevention or Treatment of Pain Induced by Chemotherapy” (Laboratorios del Dr. Esteve, S.A., priority 2009, published 2016).

Series [1] relates to Oxaliplatin-induced cold allodynia. Description: Acetone test, chronic model of oxaliplatin-induced neuropathy in rats. To be noted: for cumulative cold score (acetone test) / reaction time of paw withdrawal (acetone test): 0.5% HPMC/Oxaliplatin-treated group; for decrease in the reaction time of paw withdrawal as compared to the HPMC/distilled water-treated group: oxaliplatin 3 mg/kg i.p. 3 times a week + 0.5% HPMC. In kind it is in vivo, Sprague-Dawley rats. The protocol:
Sixty male Sprague-Dawley rats (CERJ, France), weighing 136-169 g at the beginning of the experimental phase (first administration of compounds on D-2), were used. Rats were housed in a temperature (19.5° C.-24.5° C.) and relative humidity (45%-65%) controlled room with a 12 h—light/dark cycle, with ad libitum access to standard pelleted laboratory chow and water throughout the study.
All treatments were administered in a coded order when it is possible.
Animals were tested 2 times during treatment with compound 63 (i.e. D8 and D15) and once 24 h after completion of treatment with compound 63 (i.e. D16).
During the testing days (i.e. D8, D15), compound 63 and 0.5% HPMC were administered 30 min before the test.
Cold allodynia was assessed by measuring the responses to thermal non-nocic ptive stimulation (acetone test) on D8, D15 and D16.
Cold allodynia was assessed using the acetone test. In this test, latency of hindpaw withdrawal was measured after application of a drop of acetone to the plantar surface of both hindpaws (reaction time) and the intensity of tne response was scored (cold score).
Reaction time to the cooling effect of acetone was measured within 20 sec (cut-off) after acetone application. Responses to acetone were also graded to the following 4-point scale: 0 (no response); 1 (quick withdrawal, flick of the paw); 2 (prolonged withdrawal or marked flicking of the paw); 3 (repeated flicking of the paw with licking or biting).
For each experimental group, the results were expressed as: • The reaction time defined as the time expressed in sec required to elicit paw reaction (mean of 6 measures for each rat together±SEM). • The cumulative cold score defined as the sum of the 6 scores for each rat together±SEM. The minimum score being 0 (no response to any of the 6 trials) and the maximum possible score being 18 (repeated flicking and licking or biting of paws on each of the six trials).
Statistical significance between the treated groups and the vehicle-treated group was determined by a Two-way Repeated Measures ANOVA on Ranks followed, when the F value is significant, by an appropriate post-hoc comparison (Bonferroni's test sing SigmaStet software. The significance level was p<0.05. Statistical analyses were done using SigmaStet software.

Series [2] has as its system paclitaxel-induced cold allodynia. In words: Acetone test, paclitaxel-induced cold allodynia in mice. Format: in vivo, CD-1 mice. Conditions: paclitaxel 2 mg/kg i.p. once daily during 5 days; mice. As to the method: (§1) Experiments were performed in CD-1 mice (Charles River, U.S.A.) with at least n=10/experimental group. […] Control animals received the same volume of solvent (a mixture of ethanol and cremophor EL)
(§2) Mechanical allodynia was evaluated with an electronically driven Von Frey filament (Dynamic Plantar. Aesthesiorneter, Ugo Basile, Varese, Italy) as previously described (Nieto et al., Pain, 2008, 137(3), 520-31), and cold allodynia was evaluated using the acetone drop method (Nieto et al., Pain, 2008, 137(3), 520-31). […] In addition, in order to study the influence of the sigma 1 receptor in this process the difference in development of allodynia was determined using wild-type mice and sigma 1-receptor knock-out-mice.
Therefore, the cumulative dose was 10 mg/kg per mouse. […]
The response of the animals to the different nociceptive stimuli was tested subsequently during 2-4 weeks, depending on the test (see below), without any additional treatment. Each animal was tested only in one nociceptive model. […] Each animal received only one dose of compound 63 and was tested in only one nociceptive model.
Procedure for assessment of cold allodynis. Cold allodynia was tested as previously described by Nieto et al., Pain, 2008, 137(3), 520-31, by gently touching the plantar skin of the hind paws with an acetone bubble formed with a syringe connected to a thin polyethylene tube. The mice were housed and habituated for 30 min in transparent plastic boxes (7×7×13 cm) with a floor made of wire mesh. After the adaptation period, acetone was applied alternately three times to each paw at intervals of 30 s, and the duration of licking or biting were recorded. A small mirror was placed behind the chambers to allow clear observation of the paws. The time spent licking or biting the paw was recorded by a stopwatch and represented as the cumulative time of licking/biting in the six measurements. Since licking persisting more than 10 s in the experiments was very unusual, a cut-off time of 10 s was used for each trial.
Therefore, the day 10, after the habituation period to the apparatus, baseline latencies were recorded, 30 min later compound 63 or saline was injected s.c. and paw withdrawal latencies were assessed again 60, 120 and 180 minutes after the injection.
(§3) On that day, duration of hind paw licking/biting was recorded immediately before (time 0) and at several times (60, 120 and 180 min) after the injection of compound 63 or saline.
as §3

For series [3], the system named is patients treated with paclitaxel. Conditions: paclitaxel dose 135 mg/m^2; cited from earlier work.
The test system of series [4] is paclitaxel-induced mechanical allodynia. Description: Electronic Von Frey (Dynamic Plantar Aesthesiometer), paclitaxel-induced mechanical allodynia in mice. Format: in vivo, CD-1 mice. To be noted: paclitaxel 2 mg/kg i.p. during 5 days. As to the method:
as §1, §2
Therefore, the cumulative dose was 10 mg/kg per mouse. In the control group the vehicle of paclitaxel was administered following the same schedule.
Compound 63 was dissolved in normal saline just before administration and applied at doses of 8, 16, 32 or 64 mg/kg subcutaneously.
The effects of Compound 63 on paclitaxel-induced neuropathic pain were examined in two different ways. […] The response of the animals to the different nociceptive stimuli was tested subsequently during 2-4 weeks, depending on the test (see below), without any additional treatment. Each animal was tested only in one nociceptive model. To test the effect of compound 63 on the expression of paclitaxel-induced pain, a single compound 63 injection was performed on day 10, a day of maximum expression of mechanical allodynia or cold aliodynia (see figures for details). Each animal received only one dose of compound 63 and was tested in only one nociceptive model.
Procedure for assessment of mechanical allodynia. To assess mechanical allodynia, paw withdrawal thresholds were measured using a Dynamic Plantar Aesthesiometer (Ugo Basile, Italy). The electronic Von Frey device employs a single nonflexible filament which applies a progressively increasing force (from 0 to 10 g) against the plantar surface of the hind paw over a 20 a period. […] The day of the experiment, mice were placed individually in test compartments (9×9×14 cm) with a wire mesh bottom and allowed to acclimatize to them for 2 h. After habituation, each mouse was tested three times alternately in each hind paw.
On that day, paw withdrawal latency was recorded immediately before (time 0) and at several times (30, 60, 90, 120 and 180 min) after the injection of compound 63 or saline.

On to `O=C1[O][Pt]2([NH][C@@H]3CCCC[C@H]3[NH]2)[O]C1=O` [Oxaliplatin, reference compound], for which, in series [1] (D8), the “cumulative cold score (acetone test)” value is on record as 5.0±0.8, the “reaction time of paw withdrawal (acetone test)” value (from here on “reaction time … (acetone test)”) turned out to be 14.7 ± 0.9 s and the “decrease in the reaction time of paw withdrawal as compared to the HPMC/distilled water-treated group” value is −19%. Moreover, in series [1] (D15), the “cumulative cold score (acetone test)” value came out at 7.0±1.2, the “reaction time … (acetone test)” value came to 11.5 ± 1.6 s and the “decrease in the reaction time of paw withdrawal as compared to the HPMC/distilled water-treated group” value is on record as −37%. Further, in series [1] (D16), the “cumulative cold score (acetone test)” value stood at 6.7±0.9, the “reaction time … (acetone test)” value amounted to 11.5 ± 0.9 s and the “decrease in the reaction time of paw withdrawal as compared to the HPMC/distilled water-treated group” value is given as −36%.

For the compound `CC(=O)O[C@H]1C(=O)[C@@]2(C)[C@H]([C@H](OC(=O)c3ccccc3)[C@]3(O)C[C@H](OC(=O)[C@H](O)[C@@H](NC(=O)c4ccccc4)c4ccccc4)C(C)=C1C3(C)C)[C@]1(OC(C)=O)CO[C@@H]1C[C@@H]2O` [Paclitaxel], in series [2], the “animals with significantly increased time licking/biting the stimulated paw (paclitaxel-responder animals)” value is 67% and the “paclitaxel-treated animals that did not show cold allodynia” value is on record as 33%. For the same compound, the “patients progressing to dose-limiting neurotoxicity” value in series [3] was 0%. In series [4], the “animals showing a reduction of the mechanical threshold” value was 96% and the “non-responder animals (mechanical threshold on day 10 not lower than pretreatment)” value is “about 4%”. The “induction of mechanical allodynia (threshold force for paw withdrawal, Von Frey test)” value in series [4] (day 10) is on record as “induced mechanical allodynia”.
